In the test the test system is platelets. Briefly: Activation of platelets by plasma protein fragment. Format: cell-based.

From patent publication US20240093151A1, “DEVICE AND METHOD FOR OBTAINING IMMUNO-STIMULATORY ANTIGEN-PRESENTING CELLS” (Transimmune AG, priority 2015, published 2024) come the findings set out here.

Ends that are not written are not given here.

Turning to HHLGGAKQAGDV, the “ability to activate platelets” value is reported as “able to activate platelets”.
